In brackets after ≈: the same amount, converted by molar mass. Like-named read-outs stand apart in the source and are kept apart here.
Assays:
Streptococcus Group A = assay: MIC, broth dilution (Examples I/II); format: cell-based, beta-hemolytic streptococci Group A; conditions: Table 7, Strep. Grp. A
Experimental: (§1) In order to establish comparative bactericidal and fungicidal results with homologous fatty acids, a series of experiments was performed with thirty straight-chain fatty acids and derivatives thereof. Eight different gram-negative and twelve different gram-positive organisms, representing a very broad spectrum of organisms, were used in these experiments including the fungus Candida (a yeast). Additionally, fatty acids were chosen to show the effects of saturation versus unsaturation, in the fatty acid claim. Standard solutions of the fatty acids and their derivatives were prepared by first dissolving the weighed compounds in 1 to 2 ml of 95% ethanol and immediately pouring this solution into 200 ml of Tripticase Soy Broth. These lipid compounds which are insoluble in water and broth precipitated into very small crystals or droplets. The tubes containing the suspension were warmed to approximately 70° C and were then placed in an ultrasonic tank for further solubilization of the lipid derivatives.
(§2) Standard solutions (or suspensions) at 1,000 μg/ml were twofold serially diluted with additional broth to a concentration of 125 μg/ml. A 4-ml amount of each dilution was then quickly, and with constant agitation, dispensed into appropriately labeled screw-capped glass tubes (16 by 125 mm). The tubes were sterilized with steam at 15 psi for 15 minutes. After sterilization, all tubes were cooled and incubated overnight at 35° C to insure sterility.
(§3) All compounds were compared on a molar (micromoles/milliliter) rather than on a mass basis. In the following lists of organisms used, those followed by a parenthetical number are registered with the American Type Culture Collection (ATCC); the remainder were isolates from Providence Hospital or Northland Laboratory.
(§4) One drop (0.04 ± 0.01 ml) of an 18-hr broth culture containing 10^7 and 10^9 organisms/ml was added to each dilution of the test compound, as well as to a tube of plain broth which served as the positive control. After inoculation, the contents of each tube were well mixed, and the tubes were incubated at 35° C in a 5% carbon dioxide + […] atmosphere.
(§5) The MIC is defined as the lowest concentration of compound at which no […] evidence of growth was observed when turbidity of the inoculated broth dilutions was compared with control tubes. […] Only a one-tube difference between the bactericidal and bacteriostatic concentrations was normally observed.
(§6) Standard solutions (1000 μg/ml) of three fatty acids and polyglycerol esters thereof were prepared as described in Example I. Also sucrose esters were prepared by transferring the weighed compounds (0.2 gm. dissolved in 1 ml absolute methanol) into 200 ml of sterile Trypticase Soy Broth (TSB). These standard solutions (1000 μg/ml) were twofold serially diluted with additional sterile broth to a concentration of 125 μg/ml. A 3.8 aliquot of each dilution was asceptically delivered into sterile screw-capped culture tubes. All tubes were incubated overnight at 36° C to insure sterility. The microorganisms used in this example were the same as those used in Example I.
(§7) The inoculum, 0.05 ml of an 13-24 hour TSB culture (approximately 10^9 organisms/ml) was asceptically delivered into all dilutions of the compounds, mixed well, and incubated at 36° C. A tube of inoculated broth without the compound served as a positive control and an uninoculated set of dilutions incubated along with the test dilutions, served as a negative control.
(§8) In those cases in which the test compound itself caused turbidity, an aliquot (0.015 ml) of the mixed broth was inoculated onto an agar plate and incubated at 36° C for examination, as described in Example I. The control procedure of Example I was also repeated. The lauric, capric, and oleic acids were used as internal controls and for comparison to Example I. The minimal inhibitory concentrations (μmole/ml) for the compounds studied are given in Tables 7 and 8.

[1] = tested on: Streptococcus β-hemolytic Non-A; assay: MIC, broth dilution (Examples I/II); format: cell-based, beta-hemolytic streptococci non-group A; conditions: Table 7, Strep. β-hemo. Non-A
Experimental: as §1, §2, §3, §4, §5, §6, §7, §8

Corynebacteria = assay: MIC, broth dilution (Examples I/II); format: cell-based, Corynebacterium sp. (10700); conditions: Table 7, Cornebacteria
Experimental: as §1, §2, §3, §4, §5, §6, §7, §8

Micrococci = assay: MIC, broth dilution (Examples I/II); format: cell-based, Micrococcus sp.; conditions: Table 7, Micrococci
Experimental: as §1, §2, §3, §4, §5, §6, §7, §8

S. epidermidis = assay: MIC, broth dilution (Examples I/II); format: cell-based; conditions: Table 7, Staph epider.; > = no inhibition, max. tested
Experimental: as §1, §2, §3, §4, §5, §6, §7, §8

Streptococcus Group D = assay: MIC, broth dilution (Examples I/II); format: cell-based; conditions: Table 7, Strep. Grp. D; > = no inhibition, max. tested
Experimental: as §1, §2, §3, §4, §5, §6, §7, §8

Sarcina = assay: MIC, broth dilution (Examples I/II); format: cell-based, Sarcina lutea (9431); conditions: Table 7, Sarcina; > = no inhibition, max. tested
Experimental: as §1, §2, §3, §4, §5, §6, §7, §8

gram-negative organisms = assay: Inhibition, broth dilution (Example I); format: cell-based
Experimental: as §1
as §2, with “After sterilization, all tubes were cooled and incubated overnight at 35° C to insure sterility.” left out

gram-positive organisms = assay: Inhibition, broth dilution (Example I); format: cell-based; conditions: read-out: Inhibitory concentration
Experimental: as §1
as §2, with “After sterilization, all tubes were cooled and incubated overnight at 35° C to insure sterility.” left out

Group A Strep. = assay: MIC of potassium soaps of unsaturated fatty acids (Example III); format: cell-based, Group A β-hemolytic Streptococci; conditions: Table 10, Group A Strep.
Aspergillus niger = assay: MIC, agar dilution method (Example XVI); format: cell-based; conditions: Aspergillus niger
From the text: (§9) In a manner similar to that described in Example V, the effectiveness of certain food-grade microbecides are compared with mono-esters in an agar dilution method. The very favorable results may be noted from Table 19.

Bacillus subtilis = assay: MIC, agar dilution method (Example XVI); format: cell-based; conditions: Bacillus subtilis
From the text: as §9

Canadida albicans = assay: MIC, agar dilution method (Example XVI); format: cell-based
From the text: as §9

Escherichia coli = assay: MIC, agar dilution method (Example XVI); format: cell-based; conditions: Escherichia coli
From the text: as §9

Pseudomonas aeruginosa = assay: MIC, agar dilution method (Example XVI); format: cell-based; conditions: Pseudomonas aeruginosa
From the text: as §9

Staphylococcus aureus = assay: MIC, agar dilution method (Example XVI); format: cell-based; conditions: Staphylococcus aureus
From the text: as §9

S. pyogenes = assay: Growth curve by optical density (Example IV, FIG. 3); format: cell-based, streptococcus pyogenes; conditions: 24 hours
Experimental: To a series of containers is added 40 ml of Trypticase Soy Broth and 0.5 ml of streptococcus pyogenes (10^8 organisms/ml). To respective containers are added the following: (1) 10 μg of glycerol 1-mono-laurinand 10 μg of glycerol dilaurin; (2) 5 μg of glycerol 1-mono-laurin and 5 μg of glycerol dilaurin; (3) 10 μg of glycerol 1-mono-laurin; and (4) 5 μg of glycerol 1-mono-laurin; and (5) a control without any additives. The rate of growth of the S. pyogenes was followed for 24 hours at 6 hour intervals by reading the optical density of the cultures at […] in a spectrophotometer.

[2] = Table 19, agar dilution, read-out: MIC

Question: What does the source list for Hexaglycerol monolaurate?
Answer: MIC (Streptococcus Group A): 190 µM; MIC [1]: 380 µM; MIC (Corynebacteria): 380 µM; MIC (Micrococci): 380 µM; MIC (S. epidermidis): > 1520 µM; MIC (Streptococcus Group D): > 1520 µM; MIC (Sarcina): > 1520 µM

Question: Which MIC (Streptococcus Group A) does the source give for Triglycerol monolaurate here?
Answer: 290 µM

Question: What about the MIC [1] of the same compound?
Answer: 590 µM

Question: And the MIC (Corynebacteria)?
Answer: 240 µM

Question: What about the MIC (Micrococci) of the same compound?
Answer: 290 µM

Question: And the MIC (S. epidermidis)?
Answer: > 2360 µM

Question: And the MIC (Streptococcus Group D)?
Answer: > 2360 µM

Question: And the MIC (Sarcina)?
Answer: 1180 µM

Question: With CCCCCCCCCCCCOS(=O)(=O)[O-].[Na+] [sodium lauryl sulfate] as the compound, how does the Inhibition in words (gram-negative organisms) read?
Answer: non-inhibitory

Question: What about the MIC (gram-positive organisms) of the same compound?
Answer: 3470 µM

Question: How did the MIC (Group A Strep.) turn out when CCCCCCC=CCCCC=CCCCCC(=O)O [.increment.^6 11] was run?
Answer: 20 µM

Question: How did the MIC (Group A Strep.) turn out when CCCCCC=CCCCCCC=CCCCC(=O)O [.increment.^5 12] was run?
Answer: 20 µM

Question: For CCCCCC=CCCCCC=CCCCCC(=O)O [.increment.^6 12], which MIC (Group A Strep.) is on record?
Answer: 10 µM

Question: What does the source list for Hexaglycerol monocaprate?
Answer: MIC (Streptococcus Group A): 190 µM; MIC [1]: 790 µM; MIC (Corynebacteria): 390 µM; MIC (Micrococci): 790 µM; MIC (S. epidermidis): > 1580 µM; MIC (Streptococcus Group D): > 1580 µM; MIC (Sarcina): > 1580 µM

Question: Which results are given for Oc1ccccc1 [Phenol]?
Answer: MIC (Aspergillus niger): 1250 µg/mL (≈ 13.3 mM); MIC (Bacillus subtilis): 1250 µg/mL (≈ 13.3 mM); MIC (Canadida albicans): 1250 to 2500 µg/mL (≈ 13.3 to 26.6 mM); MIC (Escherichia coli): 2500 µg/mL (≈ 26.6 mM); MIC (Pseudomonas aeruginosa): 1250 µg/mL (≈ 13.3 mM); MIC (Staphylococcus aureus): 1250 to 2500 µg/mL (≈ 13.3 to 26.6 mM)

Question: glycerol dilaurin was tested. Which “Antimicrobial activity in words (growth curve)” value (S. pyogenes) did it give?
Answer: essentially inactive

Question: With CCCCCC=CCC=CCCCCCCCC(=O)O [.increment.^9 12] as the compound, how does the MIC (Group A Strep.) read?
Answer: 10 µM

Question: C/C=C/C=C/C(=O)O [Sorbic acid] was tested. Which MIC (Aspergillus niger; [2]) did it give?
Answer: 1000 µg/mL (≈ 8.92 mM)

Question: And the MIC (Bacillus subtilis; [2])?
Answer: 1000 µg/mL (≈ 8.92 mM)

Question: And the MIC (Canadida albicans; [2])?
Answer: 1000 µg/mL (≈ 8.92 mM)

Question: And the MIC (Escherichia coli; [2])?
Answer: 1000 µg/mL (≈ 8.92 mM)

Question: What about the MIC (Pseudomonas aeruginosa; [2]) of the same compound?
Answer: 2000 µg/mL (≈ 17.8 mM)

Question: And the MIC (Staphylococcus aureus; [2])?
Answer: 1000 µg/mL (≈ 8.92 mM)
